The text below walks through data of article PMC3515450, “Mechanistic and Structural Understanding of Uncompetitive Inhibitors of Caspase-6” (PLoS ONE, 2012).

One may read the Kd as the equilibrium constant for the complex coming apart. Lower therefore signals a tighter complex. What is called Ki is the equilibrium dissociation constant of an inhibitor or competing ligand from its target.

Assay [1] concerns the target T1, covalent VEID/caspase-6 complex (Homo sapiens, UniProt P55212).
T1 construct: Residues 24-179 and 194-293 from caspase-6 cDNA (Origene) were cloned into pET-24b and pET-23b vectors; 6x histidine tag; made in house; host or cells: E. coli (as above), BirA co-expressed
T1 sequence (P55212 24-179): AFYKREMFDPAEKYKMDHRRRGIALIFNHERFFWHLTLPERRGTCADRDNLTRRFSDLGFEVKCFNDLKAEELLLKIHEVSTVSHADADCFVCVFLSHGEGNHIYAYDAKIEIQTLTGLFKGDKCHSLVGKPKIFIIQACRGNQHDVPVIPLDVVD
T1 sequence (P55212 194-293): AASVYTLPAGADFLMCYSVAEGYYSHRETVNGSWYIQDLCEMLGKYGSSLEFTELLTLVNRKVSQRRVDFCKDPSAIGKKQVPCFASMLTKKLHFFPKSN
As to the kind of experiment: SPR binding to VEID-FMK-blocked caspase-6. Conditions: covalent VEID/caspase-6 (acyl enzyme) complex, 1:1 binding. On the procedure: For SPR experiments, caspase-6 was cloned to include a C-terminal avi-tag (Avidity) and expressed and purified as above, except that biotin ligase (BirA) was co-expressed during fermentation. […] Avi-tagged zymogen C163A-caspase-6 was processed to mature C163A-caspase-6 by the addition of active caspase-3 and caspase-6. Chip preparation for neutravidin-based capture was performed as previously described using either a Biacore T100 or Biacore 3000 instrument (GE Healthcare). Running buffer was 50 mM HEPES pH 7.2, 100 mM MgSO4, 30 mM NaCl, 1 mM TCEP, 0.01% Triton X-100, 1% PEG-3350, 2.5% DMSO, and the instrument was set for 20 degrees C. After capture one flow cell of apo-caspase-6 was exposed to a continuous flow of 20 µM VEID-FMK. A rise in signal could be detected for the binding/reacting of the VEID-FMK and exposure was continued until no additional rise in response was observed (∼45 minutes) indicating full saturation of all binding sites. There was no observed decrease in signal upon washing, indicating the reaction was irreversible. […] Fluorescent substrates were too limiting in solubility and quantity to be added to the running buffer, so substrates were mixed at a concentration equal to their Kmapp with 3 and injected together over the indicated surfaces. […]
For orientation: SPR reads the build-up and loss of mass on a sensor chip optically.

For the next assay, the target named is T2, caspase-6 (Homo sapiens, UniProt P55212).
T2 construct: Residues 24-179 and 194-293 from caspase-6 cDNA (Origene) were cloned into pET-24b and pET-23b vectors; 6x histidine tag (C); made in house; host or cells: E. coli BL21 (DE3) pLysS
T2 sequence (P55212 24-179): T1 sequence (P55212 24-179)
T2 sequence (P55212 194-293): T1 sequence (P55212 194-293)
In words: Caspase-6 enzymatic assay with fluorogenic tetrapeptide substrates. The format is biochemical. As for the experimental part:
The in vitro enzymatic caspase assays utilize synthetic tetrapeptide substrates labeled with the fluorophores Rhodamine110 (R110) or 7-amino-4-methylcoumarin (AMC) at the P1 aspartic acid (Asp) residue. All assays were performed in 384-well plates in 12 µL reaction volume consisting of enzyme, substrate and indicated concentration of inhibitor or DMSO in assay buffer (50 mM HEPES [pH 7.0], 25 mM MgSO4, 0.5 mM EGTA, 5 mM Glutathione (GSH), 0.01% Triton X-100 containing 0.1% Bovine Gamma Globulin (BGG)). All inhibitors were serially diluted in 100% DMSO prior to dilution in assay buffer and transfer to assay plate. DMSO was diluted into assay buffer similarly for blank wells (no enzyme or compound) and final DMSO concentration was 1%. The concentration of caspase-6 used in enzymatic reactions typically varied between 1–10 nM depending on substrate used. Unless otherwise indicated, substrate concentration was within 3-fold of the determined Kmapparent (5 µM (Ac-VEID)2R110 [Kmapp = 8 µM]; 5 µM (Ac-DEVD)2R110 [Kmapp = 8 µM]; 25 µM (Ac-IETD)2R110 [Kmapp = 70 µM]; 25 µM (Ac-WEHD)2R110 [Kmapp = 70 µM]; 10µM Ac-VEID-AMC [Kmapp = 16µM]; 5 µM Ac-VEID-R110 [Kmapp = 8 µM]). The concentration of substrate utilized in selectivity assays for each caspase isoform was also held as close to Kmapparent as reasonably achievable (Table S1). Caspases-3 and -7 were expressed and purified at Genentech as the catalytic domain consisting of large p20 and small p10 subunits without prodomain. For all caspase enzymatic assays, the reaction plate was incubated at room temperature for 40 minutes and then read on Envision (Perkin Elmer) fluorescent plate reader at excitation/emission wavelengths of 485/535 nm (R110) or 350/450 nm (AMC). […]
The endpoint fluorescent emission (RFU) in each well was plotted as a function of inhibitor concentration and the 50% inhibition (IC50) values were determined using a nonlinear least squares fit of the data to a four parameter equation using Prism 5.0 software (GraphPad Software, San Diego, CA). […] Ki values for Compound 3 were calculated using this equation: Ki = IC50/(Km/[S] +1). Concentration-response curves for each inhibitor were normalized to zero and 100% based on no enzyme or DMSO control, respectively. For steady-state kinetic analysis, initial reaction velocity (RFU/minute) was plotted against substrate concentration at each inhibitor concentration and the data was fit to a hyperbolic Michaelis-Menten model using Prism 5.0 software. Km (µM) and Vmax (RFU/minute) were calculated by using this equation: v = Vmax • [S]/Km+[S] where v = initial reaction velocity at indicated substrate concentration (S). Vmax values were normalized to zero and 100% based on no enzyme or DMSO control, respectively.
Expression and purification of caspase-6 for enzymatic assays: Human caspase-6 was expressed as the mature enzyme using a split construct. Residues 24-179 and 194-293 from caspase-6 cDNA (Origene) were cloned into pET-24b and pET-23b vectors (Novagen) respectively; the small subunit contained a C-terminal 6x histidine tag. Vectors were cotransfected into the E.coli strain BL21 (DE3) pLysS (Stratagene). Cells were grown from a single colony in 6L of 2xYT supplemented with ampicillin and kanamycin at 37 °C to an OD of ~ 0.5 and were subsequently cooled to 16 °C before overnight induction with 0.2 mM IPTG. Cells were harvested by centrifugation, resuspended in 100 mM NaCl, 100 mM Tris, pH 8.0, and lysed.

SMILES strings stand for the structures. Read-outs that look alike come from different tables or passages of the source.

In assay [1], `COc1ccc(-c2cc(C(=O)N[C@@H](CO)Cc3cccc(C#N)c3)co2)cc1OC` [Compound 3] showed a Kd of 1300 nM. Moreover, on caspase-6 ((VEID)2R110 substrate, calculated from IC50), the Ki was 4 nM. For the same molecule, the “fold weaker with (DEVD)2R110 than with (VEID)2R110 substrate” value on caspase-6 (caspase-6) is approximately 44 fold. The IC50 on caspase-6 (caspase-6, (DEVD)2R110 substrate, read-out: IC50) is 481 nM; at caspase-6 (caspase-6, (IETD)2R110 substrate, read-out: inhibition of (IETD)2R110 cleavage), approximately 100000 nM; on caspase-6 (caspase-6, (WEHD)2R110 substrate, not inhibited up to this concentration, read-out: inhibition of (WEHD)2R110 cleavage), more than 100000 nM; on caspase-6 (caspase-6, monovalent VEID-AMC substrate, read-out: IC50), 14000 nM; at caspase-6 (caspase-6 cleavage of (VEID)2R110 substrate, read-out: IC50 (potency)) it was 11 nM. The “binding efficiency index (BEI; pIC50/molecular weight)” value at caspase-6 (caspase-6, (VEID)2R110) was found to be 19.7. At caspase-6 (versus caspases-3 and -7), the “selectivity for caspase-6 cleavage of (VEID)2R110 compared to other caspase family members tested” value was “near absolute selectivity”.
